According to US7091204B2, “Sulfonamides” (SmithKline Beecham Corporation, priority 2001, dated 2006):

Target: T1, human and rat GPR-14 (UniProt Q9UKP6)
T1 sequence (Q9UKP6 1-389): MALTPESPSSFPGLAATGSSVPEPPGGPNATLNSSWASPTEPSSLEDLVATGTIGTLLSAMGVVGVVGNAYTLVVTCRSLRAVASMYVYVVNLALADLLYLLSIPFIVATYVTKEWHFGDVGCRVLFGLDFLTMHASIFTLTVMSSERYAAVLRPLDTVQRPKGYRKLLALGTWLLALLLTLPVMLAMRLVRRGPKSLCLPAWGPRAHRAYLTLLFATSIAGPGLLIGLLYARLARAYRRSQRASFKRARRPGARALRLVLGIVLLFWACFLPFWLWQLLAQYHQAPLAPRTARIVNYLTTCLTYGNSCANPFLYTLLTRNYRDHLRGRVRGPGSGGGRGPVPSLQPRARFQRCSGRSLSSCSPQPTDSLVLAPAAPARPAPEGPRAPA
Assay: Radioligand binding: [125I] h-U-II binding to HEK-293 cell membranes
Settings: HEK-293 cell membranes with stable cloned GPR-14; 200 pM [125I] h-U-II; species for the value not stated
Method: HEK-293 cell membranes containing stable cloned human and rat GPR-14 (20 ug/assay) were incubated with 200 pM [125I] h-U-II (200 Ci/mmol^−1 in the presence of increasing concentrations of test compounds in DMSO (0.1 nM to 10 uM), in a final incubation volume of 200 ul (20 mM Tris-HCl, 5 mM MgCl2). Incubation was done for 30 minutes at room temperature followed by filtration GF/B filters with Brandel cell harvester. ^125I labeled U-II binding was quantitated by gamma counting. Nonspecific binding was defined by ^125I U-II binding in the presence of 100 nM of unlabeled human U-II. Analysis of the data was performed by nonlinear least square fitting.

Ki: 0.59 µM
SMILES: CN1CC[C@@H](Oc2cc(NS(=O)(=O)c3cnc(Cl)nc3OCC(F)(F)F)ccc2Cl)C1 [Example 14, 2-Chloro-4-(2,2,2-trifluoro-ethoxy)-pyrimidine-5-sulfonic acid [4-chloro-3-((R)-1-methyl-pyrrolidin-3-yloxy)-phenyl]-amide]
